# Experimental data from patent US11226337B2, “Chemoproteomic profiling of protein electrophilic and oxidative post-translational modifications” (Zenagem, LLC, priority 2017, dated 2022).
# Legend:
# Test in all cases: SILAC RP-ABPP
# Format in all cases: cell-based
# [1] = molecular target: T1, CTSS Cathepsin S (P25774) (Homo sapiens, UniProt P25774); settings: SILAC H/L, MDA-MB-231
# T1 construct: endogenous in cells; host or cells: HEK293T or MDA-MB-231
# Outline: (§1)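 Heavy SILAC HEK293T or MDA-MB-231 cells were treated with a clickable hydrazine probe; light cells received the non-clickable analogue (enrichment) or the probe plus 10-fold excess non-clickable competitor (competition). Mixed proteomes underwent CuAAC with 100 μM biotin-azide for 1 h. Heavy:light ratios were taken as median peptide ratios (≥3 peptides) averaged over ≥3 replicates.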
# [2] = molecular target: T2, FTL Ferritin light chain (P02792) (Homo sapiens, UniProt P02792); settings: SILAC H/L, MDA-MB-231
# T2 construct: endogenous in cells; host or cells: HEK293T or MDA-MB-231
# Outline: as §1
# [3] = molecular target: T3, HEXB Betahexosaminidase subunit beta (P07686) (Homo sapiens, UniProt P07686); settings: SILAC H/L, MDA-MB-231
# T3 construct: endogenous in cells; host or cells: HEK293T or MDA-MB-231
# Outline: as §1
# [4] = molecular target: T4, MINA MYCinduced nuclear antigen (Q8IUF8) (Homo sapiens, UniProt Q8IUF8); settings: SILAC H/L, HEK293T
# T4 construct: In Situ Labelling of Cells with Hydrazine Probes for MS Experiments; endogenous in cells; host or cells: HEK293T and/or MDA-MB-231
# Outline: as §1
# [5] = molecular target: T5, PHF8 Histone lysine demethylase PHF8 (Q9UPP1) (Homo sapiens, UniProt Q9UPP1); settings: SILAC H/L, HEK293T
# T5 construct: In Situ Labelling of Cells with Hydrazine Probes for MS Experiments; endogenous in cells
# Outline: as §1
# [6] = molecular target: T6, PHYHD1 PhytanoylCoA dioxygenase (Q5SRE7) (Homo sapiens, UniProt Q5SRE7); settings: SILAC H/L, MDA-MB-231
# T6 construct: In Situ Labelling of Cells with Hydrazine Probes for MS Experiments; endogenous in cells; host or cells: HEK293T and/or MDA-MB-231
# Outline: as §1
# [7] = molecular target: T7, PRCP Lysosomal ProX carboxypeptidase (P42785) (Homo sapiens, UniProt P42785); settings: SILAC H/L, MDA-MB-231
# T7 construct: endogenous in cells; host or cells: HEK293T or MDA-MB-231
# Outline: as §1
# [8] = molecular target: T8, PXDN Peroxidasin homolog (Q92626) (Homo sapiens, UniProt Q92626); settings: SILAC H/L, MDA-MB-231
# T8 construct: In Situ Labelling of Cells with Hydrazine Probes for MS Experiments; endogenous in cells; host or cells: HEK293T and/or MDA-MB-231
# Outline: as §1
# [9] = molecular target: T9, RAB14 Rasrelated protein Rab14 (P61106) (Homo sapiens, UniProt P61106); settings: SILAC H/L, MDA-MB-231
# T9 construct: endogenous in cells; host or cells: HEK293T or MDA-MB-231
# Outline: as §1
# [10] = molecular target: T10, RRM2 Ribonucleosidediphosphate reductase (P31350) (Homo sapiens, UniProt P31350); settings: SILAC H/L, HEK293T
# T10 construct: In Situ Labelling of Cells with Hydrazine Probes for MS Experiments; endogenous in cells; host or cells: HEK293T and/or MDA-MB-231
# Outline: as §1
# [11] = molecular target: T11, RRM2B Ribonucleosidediphosphate reductase (Q7LG56) (Homo sapiens, UniProt Q7LG56); settings: SILAC H/L, MDA-MB-231
# T11 construct: endogenous in cells; host or cells: HEK293T or MDA-MB-231
# Outline: as §1
# [12] = molecular target: T12, SCD AcylCoA desaturase (O00767) (Homo sapiens, UniProt O00767); settings: SILAC H/L, HEK293T
# T12 construct: In Situ Labelling of Cells with Hydrazine Probes for MS Experiments; endogenous in cells
# Outline: as §1
# [13] = molecular target: T13, SELENBP1 Seleniumbinding protein 1 (Q13228) (Homo sapiens, UniProt Q13228); settings: SILAC H/L, MDA-MB-231
# T13 construct: endogenous in cells; host or cells: HEK293T or MDA-MB-231
# Outline: as §1
# [14] = molecular target: T14, TTC38 Tetratricopeptide repeat protein 38 (Q5R3I4) (Homo sapiens, UniProt Q5R3I4); settings: SILAC H/L, HEK293T
# T14 construct: In Situ Labelling of Cells with Hydrazine Probes for MS Experiments; endogenous in cells; host or cells: HEK293T and/or MDA-MB-231
# Outline: as §1
# T10 sequence (P31350 whole entry): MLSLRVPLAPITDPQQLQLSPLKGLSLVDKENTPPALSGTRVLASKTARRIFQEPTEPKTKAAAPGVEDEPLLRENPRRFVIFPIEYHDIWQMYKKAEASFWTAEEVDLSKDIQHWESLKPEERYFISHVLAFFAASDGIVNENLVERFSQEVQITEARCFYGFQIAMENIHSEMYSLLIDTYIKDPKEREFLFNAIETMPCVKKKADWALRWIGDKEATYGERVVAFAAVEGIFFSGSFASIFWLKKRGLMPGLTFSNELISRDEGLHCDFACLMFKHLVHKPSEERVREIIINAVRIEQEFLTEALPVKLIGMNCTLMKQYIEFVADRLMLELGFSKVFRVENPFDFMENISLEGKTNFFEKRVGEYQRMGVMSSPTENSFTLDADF
# T11 sequence (Q7LG56 whole entry): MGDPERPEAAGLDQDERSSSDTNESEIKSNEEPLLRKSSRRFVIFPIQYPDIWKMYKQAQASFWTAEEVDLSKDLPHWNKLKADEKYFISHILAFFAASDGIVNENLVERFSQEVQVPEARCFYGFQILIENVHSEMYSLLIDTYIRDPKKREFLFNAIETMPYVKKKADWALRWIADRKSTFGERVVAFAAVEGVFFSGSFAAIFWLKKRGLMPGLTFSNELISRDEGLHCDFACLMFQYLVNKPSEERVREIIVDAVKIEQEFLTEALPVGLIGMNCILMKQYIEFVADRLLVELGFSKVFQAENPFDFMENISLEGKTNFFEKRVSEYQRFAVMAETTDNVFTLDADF
# T12 sequence (O00767 whole entry): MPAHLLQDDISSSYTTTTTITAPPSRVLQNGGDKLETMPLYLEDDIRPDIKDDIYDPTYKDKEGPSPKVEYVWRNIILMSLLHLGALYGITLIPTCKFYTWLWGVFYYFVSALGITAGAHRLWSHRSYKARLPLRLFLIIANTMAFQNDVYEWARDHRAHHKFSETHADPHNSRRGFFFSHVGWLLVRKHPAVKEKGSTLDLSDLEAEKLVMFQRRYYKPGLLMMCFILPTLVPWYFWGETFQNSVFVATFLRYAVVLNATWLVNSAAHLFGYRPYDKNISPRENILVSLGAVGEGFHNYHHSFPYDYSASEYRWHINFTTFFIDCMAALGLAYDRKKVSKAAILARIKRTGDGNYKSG
# T5 sequence (Q9UPP1 whole entry): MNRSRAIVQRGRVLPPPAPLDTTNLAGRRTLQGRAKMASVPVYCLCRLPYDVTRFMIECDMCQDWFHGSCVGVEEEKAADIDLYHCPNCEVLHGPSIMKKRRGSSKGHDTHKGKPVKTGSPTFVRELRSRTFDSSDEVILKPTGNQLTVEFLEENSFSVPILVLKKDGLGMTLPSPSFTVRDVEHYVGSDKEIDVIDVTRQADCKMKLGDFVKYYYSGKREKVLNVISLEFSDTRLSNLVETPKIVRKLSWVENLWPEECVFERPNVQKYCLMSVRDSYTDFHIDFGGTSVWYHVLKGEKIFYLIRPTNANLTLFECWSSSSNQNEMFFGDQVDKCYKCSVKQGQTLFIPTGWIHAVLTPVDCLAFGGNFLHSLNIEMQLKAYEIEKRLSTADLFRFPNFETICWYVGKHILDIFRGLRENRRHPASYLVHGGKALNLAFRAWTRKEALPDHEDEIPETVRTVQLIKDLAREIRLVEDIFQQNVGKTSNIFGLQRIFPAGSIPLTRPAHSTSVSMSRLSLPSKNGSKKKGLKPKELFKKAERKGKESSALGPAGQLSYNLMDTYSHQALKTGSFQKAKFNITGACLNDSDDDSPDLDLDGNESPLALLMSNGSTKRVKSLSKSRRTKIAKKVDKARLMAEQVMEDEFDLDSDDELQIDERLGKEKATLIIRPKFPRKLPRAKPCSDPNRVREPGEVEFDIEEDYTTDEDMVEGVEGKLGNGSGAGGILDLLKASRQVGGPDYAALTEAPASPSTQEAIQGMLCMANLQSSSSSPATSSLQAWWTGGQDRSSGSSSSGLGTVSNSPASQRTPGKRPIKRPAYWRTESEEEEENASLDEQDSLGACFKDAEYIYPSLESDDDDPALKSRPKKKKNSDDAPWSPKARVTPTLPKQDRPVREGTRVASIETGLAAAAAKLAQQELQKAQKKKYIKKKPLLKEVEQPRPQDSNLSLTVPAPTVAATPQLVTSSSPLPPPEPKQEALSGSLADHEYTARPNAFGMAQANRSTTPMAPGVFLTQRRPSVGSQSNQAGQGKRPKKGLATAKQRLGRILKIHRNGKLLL
# T9 sequence (P61106 whole entry): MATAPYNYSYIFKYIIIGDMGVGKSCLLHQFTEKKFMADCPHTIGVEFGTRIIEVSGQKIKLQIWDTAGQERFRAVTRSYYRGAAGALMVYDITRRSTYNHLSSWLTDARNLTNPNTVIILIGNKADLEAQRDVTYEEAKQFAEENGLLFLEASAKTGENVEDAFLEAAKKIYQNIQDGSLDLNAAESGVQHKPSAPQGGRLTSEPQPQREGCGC
# T14 sequence (Q5R3I4 whole entry): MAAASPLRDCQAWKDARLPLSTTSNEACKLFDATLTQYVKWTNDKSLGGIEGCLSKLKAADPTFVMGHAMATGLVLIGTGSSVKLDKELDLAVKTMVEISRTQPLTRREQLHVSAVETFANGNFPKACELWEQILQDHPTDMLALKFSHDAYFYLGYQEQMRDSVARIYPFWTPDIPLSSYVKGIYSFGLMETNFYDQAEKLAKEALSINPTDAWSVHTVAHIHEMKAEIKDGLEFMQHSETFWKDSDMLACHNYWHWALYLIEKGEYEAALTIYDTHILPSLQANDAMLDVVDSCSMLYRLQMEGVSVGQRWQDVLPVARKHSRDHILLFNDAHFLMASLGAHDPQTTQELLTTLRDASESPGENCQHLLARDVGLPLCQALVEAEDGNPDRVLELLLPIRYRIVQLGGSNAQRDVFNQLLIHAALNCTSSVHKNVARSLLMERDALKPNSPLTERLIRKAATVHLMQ
# T8 sequence (Q92626 27-1479): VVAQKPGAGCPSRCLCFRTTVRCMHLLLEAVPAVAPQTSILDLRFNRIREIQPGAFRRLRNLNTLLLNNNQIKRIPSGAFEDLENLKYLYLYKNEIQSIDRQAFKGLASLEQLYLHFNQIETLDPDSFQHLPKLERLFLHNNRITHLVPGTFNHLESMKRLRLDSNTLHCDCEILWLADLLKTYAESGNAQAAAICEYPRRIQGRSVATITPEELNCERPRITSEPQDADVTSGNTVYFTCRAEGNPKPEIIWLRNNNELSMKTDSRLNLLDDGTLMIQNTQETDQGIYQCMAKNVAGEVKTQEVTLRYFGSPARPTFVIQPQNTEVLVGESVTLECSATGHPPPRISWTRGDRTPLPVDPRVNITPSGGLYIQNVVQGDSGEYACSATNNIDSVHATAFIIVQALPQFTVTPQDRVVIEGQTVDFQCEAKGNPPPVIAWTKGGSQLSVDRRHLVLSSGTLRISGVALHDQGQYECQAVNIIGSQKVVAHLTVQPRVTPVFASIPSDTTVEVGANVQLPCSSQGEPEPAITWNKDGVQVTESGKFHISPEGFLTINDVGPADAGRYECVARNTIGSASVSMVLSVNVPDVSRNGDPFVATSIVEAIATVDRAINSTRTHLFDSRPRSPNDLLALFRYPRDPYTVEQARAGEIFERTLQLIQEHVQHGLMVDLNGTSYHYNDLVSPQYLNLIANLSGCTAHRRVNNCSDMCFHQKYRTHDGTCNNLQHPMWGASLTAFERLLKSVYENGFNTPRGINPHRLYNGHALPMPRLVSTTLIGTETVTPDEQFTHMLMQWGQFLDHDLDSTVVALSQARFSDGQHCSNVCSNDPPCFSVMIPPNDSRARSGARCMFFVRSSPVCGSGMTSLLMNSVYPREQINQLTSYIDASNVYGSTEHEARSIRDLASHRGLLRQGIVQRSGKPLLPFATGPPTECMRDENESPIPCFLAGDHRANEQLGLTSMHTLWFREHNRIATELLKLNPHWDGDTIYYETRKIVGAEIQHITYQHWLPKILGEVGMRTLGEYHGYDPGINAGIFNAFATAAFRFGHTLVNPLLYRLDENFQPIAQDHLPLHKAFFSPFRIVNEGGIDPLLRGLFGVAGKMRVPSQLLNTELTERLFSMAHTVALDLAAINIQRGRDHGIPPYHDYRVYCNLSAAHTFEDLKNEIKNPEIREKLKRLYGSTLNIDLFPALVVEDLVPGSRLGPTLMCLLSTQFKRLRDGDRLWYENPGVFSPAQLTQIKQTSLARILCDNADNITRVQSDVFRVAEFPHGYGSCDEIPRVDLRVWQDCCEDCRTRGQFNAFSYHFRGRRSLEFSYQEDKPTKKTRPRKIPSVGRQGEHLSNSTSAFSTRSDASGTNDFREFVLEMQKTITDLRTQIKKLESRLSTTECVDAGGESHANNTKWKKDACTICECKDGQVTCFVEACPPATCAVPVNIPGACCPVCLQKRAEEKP
# T4 sequence (Q8IUF8 whole entry): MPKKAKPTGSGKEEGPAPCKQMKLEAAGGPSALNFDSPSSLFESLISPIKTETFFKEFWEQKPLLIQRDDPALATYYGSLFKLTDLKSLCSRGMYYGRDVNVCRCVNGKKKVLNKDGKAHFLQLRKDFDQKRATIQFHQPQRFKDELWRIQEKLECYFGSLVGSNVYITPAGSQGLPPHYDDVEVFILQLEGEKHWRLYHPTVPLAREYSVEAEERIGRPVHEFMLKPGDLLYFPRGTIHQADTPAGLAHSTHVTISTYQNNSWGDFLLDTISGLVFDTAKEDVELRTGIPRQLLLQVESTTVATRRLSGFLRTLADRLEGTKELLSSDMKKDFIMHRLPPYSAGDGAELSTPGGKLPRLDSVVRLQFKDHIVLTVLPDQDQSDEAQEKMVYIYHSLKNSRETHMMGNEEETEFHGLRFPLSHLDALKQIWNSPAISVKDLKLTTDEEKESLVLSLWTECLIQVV
# T1 sequence (P25774 115-331): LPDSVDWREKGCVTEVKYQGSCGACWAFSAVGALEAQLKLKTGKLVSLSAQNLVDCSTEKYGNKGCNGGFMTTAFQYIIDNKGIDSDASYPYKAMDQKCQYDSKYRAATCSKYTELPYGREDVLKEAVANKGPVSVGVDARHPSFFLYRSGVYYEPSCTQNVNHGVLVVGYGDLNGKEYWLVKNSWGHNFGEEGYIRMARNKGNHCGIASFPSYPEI
smiles,measurement,setting,value
"C#CCCNC(=O)c1ccc(NN)cc1.Cl [probe 2, N-(but-3-yn-1-yl)-4-hydrazinylbenzamide hydrochloride]",enrichment ratioavg,[1]; probe 2 1 mM 0.5 h vs probe 4,18
same,competition ratioavg,[1]; probe 2 vs probe 2+10x probe 4,3
same,enrichment ratioavg,[2]; probe 2 1 mM 0.5 h vs probe 4,7
same,competition ratioavg,[2]; probe 2 vs probe 2+10x probe 4,3
same,enrichment ratioavg,[3]; probe 2 1 mM 0.5 h vs probe 4,11
same,competition ratioavg,[3]; probe 2 vs probe 2+10x probe 4,3
same,enrichment ratioavg,[4]; probe 2 1 mM 0.5 h vs probe 4,8
same,competition ratioavg,[4]; probe 2 vs probe 2+10x probe 4,2
same,enrichment ratioavg,[5]; probe 2 1 mM 0.5 h vs probe 4,20
same,competition ratioavg,[5]; probe 2 vs probe 2+10x probe 4,15
same,enrichment ratioavg,[6]; probe 2 1 mM 0.5 h vs probe 4,14
same,competition ratioavg,[6]; probe 2 vs probe 2+10x probe 4,5
same,enrichment ratioavg,[7]; probe 2 1 mM 0.5 h vs probe 4,15
same,competition ratioavg,[7]; probe 2 vs probe 2+10x probe 4,4
same,enrichment ratioavg,[8]; probe 2 1 mM 0.5 h vs probe 4,20
same,competition ratioavg,[8]; probe 2 vs probe 2+10x probe 4,5
same,enrichment ratioavg,[9]; probe 2 1 mM 0.5 h vs probe 4,5
same,competition ratioavg,[9]; probe 2 vs probe 2+10x probe 4,3
same,enrichment ratioavg,[10]; probe 2 1 mM 0.5 h vs probe 4,13
same,competition ratioavg,[10]; probe 2 vs probe 2+10x probe 4,1
same,enrichment ratioavg,[11]; probe 2 1 mM 0.5 h vs probe 4,7
same,competition ratioavg,[11]; probe 2 vs probe 2+10x probe 4,2
same,enrichment ratioavg,[12]; probe 2 1 mM 0.5 h vs probe 4,20
same,competition ratioavg,[12]; probe 2 vs probe 2+10x probe 4,9
same,enrichment ratioavg,[13]; probe 2 1 mM 0.5 h vs probe 4,20
same,competition ratioavg,[13]; probe 2 vs probe 2+10x probe 4,3
same,enrichment ratioavg,[14]; probe 2 1 mM 0.5 h vs probe 4,14
same,competition ratioavg,[14]; probe 2 vs probe 2+10x probe 4,2
